In patent US10501459B2, “Substituted imidazo[1,2-a]pyridines as bromodomain inhibitors” (NEOMED Institute, priority 2015, dated 2019) one finds IC50 data, which are given here for ten molecules.

The target in assay [1] is T1, BRD4(BD1) (Homo sapiens, UniProt O60885).
T1 construct: purchased BPS Bioscience
Description: In vitro bromodomain inhibition, BRD4(BD1) / biotinylated H4-tetraacetyl peptide AlphaLISA. In kind it is binding. To be noted: His-tagged BRD4 BD1 200 nM, H4 peptide 200 nM, read-out: BRD4α (IC50). The procedure:
a) In Vitro Bromodomain Inhibition
To measure activity of bromodomain inhibitors, a His-epitope tagged BRD4 BD149-170 is purchased from BPS Bioscience. BRD4 binding and inhibition is assessed by monitoring the engagement of biotinylated H4-tetraacetyl peptide (H4K5/8/12/16; AnaSpec #64989-025) with the target using the AlphaLISA technology (Perkin-Elmer). Specifically, in a 384 well OptiPlate, BRD4(BD1) (200 nM final) is pre-incubated with either DMSO (final 1.0% DMSO) or a compound dilution series in DMSO. All reagents are diluted in assay buffer containing 50 mM HEPES (pH 7.4), 100 mM NaCl, 0.1% (w/v) BSA, and 0.05% (w/v) CHAPS. After a 30 minute incubation at room temperature, H4 peptide is added (200 nM final) and the reaction is incubated an additional 30 minutes at room temperature. Alpha streptavidin donor beads and AlphaLISA nickel chelate acceptor beads are then added to a final concentration of 10 μg/mL each. After one hour, equilibration plates are read on an Envision instrument and IC50s calculated using a four parameter non-linear curve fit.

In assay [2] the test system is human C-Myc gene transcription in MV-4-11 cells. The assay is described as follows: Transcription of human C-Myc in human leukemic MV-4-11 cells (QuantiGene 2.0). Particulars: Homo sapiens, MV4-11, 4 h, inhibition of C-Myc mRNA, 4 hours treatment. In kind it is cell-based. As for the experimental part: b) Transcription of Human C-Myc in Human Leukemic MV-4-11 Cells:
The effect of compounds on transcription of human C-Myc gene is monitored in human B-myelomonocytic leukemia cell line MV-4-11 (from American Type Culture Collection (ATCC), Manassas, Va., USA) using QuantiGene 2.0 assay kit (Affymetrix, Santa Clara, Calif., USA).
Typically, 8,000 MV-4-11 cells are plated in sterile 96-well plates (Costar #3598 from Fisher Scientific Canada, Ottawa, Ontario, Canada) in Iscove's medium supplemented with 10% fetal bovine serum, glutamine (2 mM), and penicillin (100 I.U.) and streptomycin (100 μg/mL) (all from Wisent Inc., St. Bruno, Quebec, Canada). Compounds are dissolved in DMSO at 30 mM. A series of 1:3 dilutions are first made in DMSO, and further […] dilutions are made in serum-containing cell culture media. The final concentration of DMSO is […] in cell culture media. After cells are treated with various concentrations of test compound for 4 hours, cells are lysed using Quantigene 2.0 sample processing kit (#QS0100). C-Myc mRNA is detected using a QuantiGene 2.0 assay kit (#QS0009) with gene-specific probe to human C-Myc (#SA-50182) following the manufacturer's recommendations. Luminescene signals are read on Flexstation II microplate reader (Molecular Devices, Sunnyvale, Calif., USA). Percentage of inhibition of C-Myc transcription is analyzed using EXCEL (2010 version).

For the molecule `Cc1cc(-c2ccc3ncc(Cc4ccccc4)n3c2)cn(C)c1=O` [Compound 1, 5-(3-benzylimidazo[1,2-a]pyridin-6-yl)-1,3-dimethyl-pyridin-2-one], the IC50 in assay [1] turned out to be 122 nM; in assay [2] it was 58 nM.

Consider `Cc1cc(-c2ccc3ncc(Cc4ccc(F)cc4)n3c2)cn(C)c1=O` [Compound 2, 5-[3-[(4-fluorophenyl)methyl]imidazo[1,2-a]pyridin-6-yl]-1,3-dimethyl-pyridin-2-one], for which the IC50 in assay [1] was 99.5 nM; in assay [2], 59.2 nM.

With `Cc1cc(-c2ccc3ncc(Cc4ccc(Cl)cc4)n3c2)cn(C)c1=O` [Compound 3, 5-[3-[(4-chlorophenyl)methyl]imidazo[1,2-a]pyridin-6-yl]-1,3-dimethyl-pyridin-2-one], the figures for the IC50 in assay [1] and in assay [2] were 143 nM and 86.3 nM, respectively.

In the case of `COc1ccc(Cc2cnc3ccc(-c4cc(C)c(=O)n(C)c4)cn23)cc1` [Compound 4, 5-[3-[(4-methoxyphenyl)methyl]imidazo[1,2-a]pyridin-6-yl]-1,3-dimethyl-pyridin-2-one], the IC50 was found to be 313 nM in assay [1] and 276 nM in assay [2].

Turning to `Cc1cc(-c2ccc3ncc(Cc4cccc(F)c4)n3c2)cn(C)c1=O` [Compound 5, 5-[3-[(3-fluorophenyl)methyl]imidazo[1,2-a]pyridin-6-yl]-1,3-dimethyl-pyridin-2-one], the IC50 in assay [1] stood at 113 nM; in assay [2] it was 93.9 nM.

On to `Cc1cc(-c2ccc3ncc(CN4CCCCC4)n3c2)cn(C)c1=O` [Compound 8, 1,3-dimethyl-5-[3-(1-piperidylmethyl)imidazo[1,2-a]pyridin-6-yl]pyridin-2-one], for which the IC50 in assay [1] stood at 195 nM; in assay [2] it was 844 nM.

With `Cc1cc(-c2ccc3ncc(COC4CCCC4)n3c2)cn(C)c1=O` [Compound 9, 5-[3-(cyclopentoxymethyl)imidazo[1,2-a]pyridin-6-yl]-1,3-dimethyl-pyridin-2-one], the figures for the IC50 in assay [1] and in assay [2] were 153 nM and 152 nM, respectively.

Regarding `Cc1cc(-c2ccc3ncc(CNc4ccccc4)n3c2)cn(C)c1=O` [Compound 10, 5-[3-(anilinomethyl)imidazo[1,2-a]pyridin-6-yl]-1,3-dimethyl-pyridin-2-one], the values for the IC50 in assay [1] and in assay [2] were 318 nM and 837 nM, respectively.

In assay [2], `Cc1nc2ccc(-c3cc(C)c(=O)n(C)c3)cn2c1Cc1cccnc1` [Compound 55, 1,3-dimethyl-5-[2-methyl-3-(3-pyridylmethyl)imidazo[1,2-a]pyridin-6-yl] pyridin-2-one] displayed an IC50 of 84.5 nM.

For the molecule `Cc1nc2ccc(-c3cc(C)c(=O)n(C)c3)cn2c1Cc1ccncc1` [Compound 56, 1,3-dimethyl-5-[2-methyl-3-(4-pyridylmethyl)imidazo[1,2-a]pyridin-6-yl] pyridin-2-one], half-maximal inhibition in assay [2] (IC50) was put at 153 nM.
